From patent US8288410B2, “3-substituted quinolinium and 7H-indolo[2,3-c]quinolinium salts as new antiinfectives” (Florida Agricultural and Mechanical University, priority 2008, dated 2012)
Values after ≈ are worked out from the molar mass of the structure shown. Where two headings read alike, the source gives them in different places.

Assays:
[1] = system: Aspergillus fumigatus ATCC 90906; test: Antifungal susceptibility testing, Aspergillus fumigatus; type: cell-based; conditions: for IC50: ATCC90906, read-out: A fu IC50
Description: (§1) Using standard susceptibility tests, the compounds of the invention were determined to be active against MRSA, C. neoformans and several other bacteria, fungi and protozoa. More specifically, the antibacterial and antifungal testing was carried out in the following manner. Cryptococcus neoformans ATCC 90113 and MRSA were obtained from the American Type Culture Collection (Manassas. Va.). Several others including Candida albicans ATTC 90028, Aspergillus fumigatus ATCC 90906 and Mycobacterium intracellulare (M. intracellulare) ATCC 23086 were also procured. Susceptibility testing was performed using a modified version of the National Committee for Clinical Laboratory Standards method. M. intracellulare was tested using a modified method of Franzblau, et al., J. Clin. Microbiol., 1998, 36, 362-366. DMSO solutions of samples were serially diluted in saline, and transferred in duplicate to 96 well microplates. Microbial suspensions were diluted in the broth to afford desired colony forming units/mL according to the 0.5 McFarland Standard [C. Albicans: either Saboraud Dextrose broth (SDB) or RPMI 1640, C. neoformans: SDB, A fumigatus: either YM broth (for MICS) or RPMI-1640+5% Alamar Blue.] After adding microbial cultures to the sampled afforded a final volume of 200 μL and final test concentration starting with 20 μg/mL, plates were read prior to and after final incubation using either fluorescence at 544ex/590em (M intracellulare, A. fumigatus) using the Polarstar galaxy reader (Biotek Instruments, Vermont). Growth (saline only), solvent and blank (media only) controls were included on each test plate. Drug controls [Ciprofloxacin (ICN Biomedicals, Ohio) for bacteria and Amphotericin B (ICN Biomedicals, Ohio) for fungi] were included in each assay. Percent growth was calculated and plotted versus test concentration to afford IC50 (sample concentration that affords 50% inhibition or growth of the organism). The minimum inhibitory concentration (MIC) was determined by visually inspecting the plate, and is defined as the lowest test concentration that allows no detectable growth (for Almar Blue assays, no color change from blue to pink).

[2] = system: Vero Cells; test: Cytotoxicity, Vero cells; type: cell-based
[3] = system: MRSA; test: Antibacterial susceptibility testing, MRSA; type: cell-based, methicillin resistant Staphylococcus aureus; conditions: for IC50 / MFC / MIC: Staphylococcus aureus; for MFC: Table 3, read-out: MRSA MFC; for MRSA IC50 / MRSA MFC / MRSA MIC: Table 2; for MRS IC50 / MRS MFC / MRS MIC: Table 1
Description: as §1

[4] = system: Cryptococcus neoformans ATCC 90113; test: Antifungal susceptibility testing, Cryptococcus neoformans; type: cell-based
Description: as §1

[5] = system: Candida albicans ATTC 90028; test: Antifungal susceptibility testing, Candida albicans; type: cell-based
Description: as §1

[6] = ATCC90113, Table 2, read-out: Cn IC50
[7] = ATCC90113, Table 2, read-out: Cn MFC
[8] = ATCC90113, Table 2, read-out: Cn MIC
[9] = ATTC90028, Table 2, read-out: Ca IC50
[10] = ATTC90028, Table 2, read-out: Ca MFC
[11] = ATTC90028, Table 2, read-out: Ca MIC

SMILES	A fu MFC [1] [µg/mL]	A fu MIC [1] [µg/mL]	A fu IC50 ([1]; Table 2, Aspergillus fumigatus)	TC50 Vero Cells ([2]; Table 2) [µg/mL]	Cn IC50 ([4]; Table 2) [µg/mL]	Cn MFC ([4]; Table 2)	Cn MIC ([4]; Table 2) [µg/mL]	Ca IC50 ([5]; Table 2) [µg/mL]	Ca MFC ([5]; Table 2)	Ca MIC ([5]; Table 2) [µg/mL]	A fu IC50 ([1]; Table 1, Aspergillus fumigatus)	A fu MFC ([1]; Table 1, Aspergillus fumigatus)	Cn MFC ([4]; Table 1)	Cn MIC ([4]; Table 1)	Ca IC50 ([5]; Table 1)	Ca MFC ([5]; Table 1)	Ca MIC ([5]; Table 1)	also measured
C[n+]1cc2c(c3cc(Cl)ccc3n2CCCCCC2CCCCC2)c2ccccc21.[I-] [JRE-3-13-1, 10-Chloro-7-(5-cyclohexyl-pentyl)-5-methyl-7H-indolo[2,3-c]quinolin-5-ium iodide]	25	6.3																IC50 ([1]; Table 3, Aspergillus fumigatus): 2 µg/mL; TC50 Vero Cells ([2]; Table 3): >10 µg/mL; IC50 ([3]; Table 3, read-out: MRSA IC50): 0.5 µg/mL; MFC [3]: 0.8 µg/mL; MIC ([3]; Table 3, read-out: MRSA MIC): 0.8 µg/mL; IC50 ([4]; ATCC90113, Table 3, read-out: Cn IC50): 0.9 µg/mL; MFC ([4]; ATCC90113, Table 3, read-out: Cn MFC): 1.6 µg/mL; MIC ([4]; ATCC90113, Table 3, read-out: Cn MIC): 1.6 µg/mL; IC50 ([5]; ATTC90028, Table 3, read-out: Ca IC50): 0.9 µg/mL; MFC ([5]; ATTC90028, Table 3, read-out: Ca MFC): 1.6 µg/mL; MIC ([5]; ATTC90028, Table 3, read-out: Ca MIC): 1.6 µg/mL
COc1ccc(N(CCCCCC2CCCCC2)c2cc3ccccc3[n+](C)c2)cc1.[I-] [JRE-3-68-1]	10	1.3	0.80 µg/mL	>10	0.50	5.0 µg/mL	1.3	0.80	1.3 µg/mL	1.3								MRSA IC50 [3]: 0.50 µg/mL; MRSA MFC [3]: 1.3 µg/mL; MRSA MIC [3]: 1.3 µg/mL
FC(F)(F)c1ccc(Sc2cc3ccccc3[n+](CCCCCc3ccccc3)c2)cc1.[I-] [XYZ-III-66]											3.0 µg/mL	— ((-) = >20 μg/mL)	10 µg/mL	5.0 µg/mL	5.5 µg/mL	— ((-) = >20 μg/mL)	10 µg/mL	A fu MIC ([1]; Table 1, Aspergillus fumigatus): 5.0 µg/mL; TC50 Vero Cells ([2]; Table 1): NC (NC = Not toxic at 10 μg/mL); Cn IC50 ([4]; Table 1): 2.0 µg/mL
C[n+]1cc(N(CCCCCC2CCCCC2)c2ccsc2)cc2ccccc21 [EVK-II-091]	5.0	1.3		>10														IC50 ([1]; Table 2, Aspergillus fumigatus): 0.5 µg/mL; IC50 ([3]; Table 2, read-out: MRSA IC50): 0.45 µg/mL; MIC ([3]; Table 2, read-out: MRSA MIC): 0.63 µg/mL; IC50 [4, 6]: 0.45 µg/mL; MFC [4, 7]: 5 µg/mL; MIC [4, 8]: 0.63 µg/mL; IC50 [5, 9]: 0.8 µg/mL; MFC [5, 10]: > 20 µg/mL; MIC [5, 11]: 1.3 µg/mL
C[n+]1cc(N(CCCCCC2CCCCC2)c2ccc3ccccc3c2)cc2ccccc21 [EVK-III-001]	3.1	1.6		9.0														IC50 ([1]; Table 2, Aspergillus fumigatus): 0.95 µg/mL; IC50 ([3]; Table 2, read-out: MRSA IC50): 0.3 µg/mL; MIC ([3]; Table 2, read-out: MRSA MIC): 0.78 µg/mL; IC50 [4, 6]: 0.35 µg/mL; MFC [4, 7]: 1.6 µg/mL; MIC [4, 8]: 0.78 µg/mL; IC50 [5, 9]: 0.2 µg/mL; MFC [5, 10]: 3.1 µg/mL; MIC [5, 11]: 0.39 µg/mL
Clc1cccc(Nc2cc3ccccc3[n+](CCCCCC3CCCCC3)c2)c1.[I-] [JRE-3-88-1]		6.3	3.5 µg/mL	12.5	2.0	50 µg/mL	3.1	2.0	13 µg/mL	6.3								MRSA IC50 [3]: 0.55 µg/mL; MRSA MFC [3]: 1.6 µg/mL; MRSA MIC [3]: 0.78 µg/mL
C[n+]1cc(N(CCCCCC2CCCCC2)c2ccc(OC(F)(F)F)cc2)cc2ccccc21.[I-] [JRE-3-99-1]	2.5	2.5	0.95 µg/mL	>10	0.70	1.3 µg/mL	1.3	0.45	10 µg/mL	1.3								MRSA IC50 [3]: 0.65 µg/mL; MRSA MFC [3]: 1.3 µg/mL; MRSA MIC [3]: 1.3 µg/mL
Clc1ccc(Nc2cc3ccccc3[n+](CCCCCC3CCCCC3)c2)cc1.[I-] [JRE-2-83-1]			— ((-) = >20 μg/mL)	12.5	1.0	— ((-) = >20 μg/mL)	1.6	2.0	— ((-) = >20 μg/mL)	25								MRSA IC50 [3]: 0.50 µg/mL; MRSA MFC [3]: 1.6 µg/mL; MRSA MIC [3]: 0.78 µg/mL
O=C(O)c1cn(C2CC2)c2cc(N3CCNCC3)c(F)cc2c1=O [Cipro, Ciprofloxacin, reference compound]																		TC50 Vero Cells ([2]; Table 3): >10 µg/mL; IC50 ([3]; Table 3, read-out: MRSA IC50): 0.09 µg/mL (≈ 0.272 µM); MFC [3]: > 20 µg/mL; MIC ([3]; Table 3, read-out: MRSA MIC): 0.5 µg/mL (≈ 1.51 µM)
C[C@@H]1[C@H](O)[C@@H](C)/C=C/C=C/C=C/C=C/C=C/C=C/C=C/[C@H](O[C@@H]2O[C@H](C)[C@@H](O)[C@H](N)[C@@H]2O)C[C@@H]2O[C@](O)(C[C@@H](O)C[C@@H](O)[C@H](O)CC[C@@H](O)C[C@@H](O)CC(=O)O[C@H]1C)C[C@H](O)[C@H]2C(=O)O [Amph B, Amphotericin B, reference compound]	2.5	2.5	0.90 µg/mL	6.5 (≈ 7.03 µM)	0.85	2.5 µg/mL	2.5	0.25	1.3 µg/mL	0.63	0.90 µg/mL		2.5 µg/mL	2.5 µg/mL	0.25 µg/mL	1.3 µg/mL	0.63 µg/mL	A fu IC50 ([1]; Table 3, Aspergillus fumigatus): 0.90 µg/mL; TC50 Vero Cells ([2]; Table 1): 6.5 µg/mL (≈ 7.03 µM); TC50 Vero Cells ([2]; Table 3): 6.5 µg/mL (≈ 7.03 µM); Cn IC50 ([4]; Table 1): 0.85 µg/mL; Cn IC50 ([4]; Table 3): 0.85 µg/mL; Cn MFC ([4]; Table 3): 2.5 µg/mL; Cn MIC ([4]; Table 3): 2.5 µg/mL; Ca IC50 ([5]; Table 3): 0.25 µg/mL; Ca MFC ([5]; Table 3): 1.3 µg/mL; Ca MIC ([5]; Table 3): 0.63 µg/mL
O=C(c1ccc(Cl)cc1)c1cc2ccccc2[n+](CCCCCc2ccccc2)c1.[I-] [XYZ-V-62]											10 µg/mL	— ((-) = >20 μg/mL)	10 µg/mL	5.0 µg/mL	7.0 µg/mL	— ((-) = >20 μg/mL)	10 µg/mL	A fu MIC ([1]; Table 1, Aspergillus fumigatus): 20 µg/mL; MRS IC50 [3]: 0.20 µg/mL; MRS MFC [3]: — ((-) = >20 μg/mL); MRS MIC [3]: 3.1 µg/mL; Cn IC50 ([4]; Table 1): 2.0 µg/mL
[I-].[O-][S+](c1ccccc1)c1cc2ccccc2[n+](CCCCCc2ccccc2)c1 (stereo not drawn) [XYZ-IV-79]											— ((-) = >20 μg/mL)	— ((-) = >20 μg/mL)	— ((-) = >20 μg/mL)	— ((-) = >20 μg/mL)	— ((-) = >20 μg/mL)	— ((-) = >20 μg/mL)	— ((-) = >20 μg/mL)	A fu MIC ([1]; Table 1, Aspergillus fumigatus): — ((-) = >20 μg/mL); MRS IC50 [3]: 1.5 µg/mL; MRS MFC [3]: — ((-) = >20 μg/mL); MRS MIC [3]: 5.0 µg/mL
[I-].c1ccc(CCCCC[n+]2cc(Oc3ccccc3)cc3ccccc32)cc1 [XYZ-III-83]											2.0 µg/mL	— ((-) = >20 μg/mL)	— ((-) = >20 μg/mL)	— ((-) = >20 μg/mL)	— ((-) = >20 μg/mL)	— ((-) = >20 μg/mL)	— ((-) = >20 μg/mL)	A fu MIC ([1]; Table 1, Aspergillus fumigatus): — ((-) = >20 μg/mL); MRS IC50 [3]: 15 µg/mL; MRS MFC [3]: — ((-) = >20 μg/mL); MRS MIC [3]: 20 µg/mL; Cn IC50 ([4]; Table 1): — ((-) = >20 μg/mL)
[I-].c1ccc(CCCCC[n+]2cc(Sc3ccccc3)cc3ccccc32)cc1 [XYZ-III-54]											1.3 µg/mL	— ((-) = >20 μg/mL)	10 µg/mL	5.0 µg/mL	5.5 µg/mL	— ((-) = >20 μg/mL)	10 µg/mL	MRS IC50 [3]: 1.0 µg/mL; MRS MFC [3]: 10 µg/mL; MRS MIC [3]: 2.5 µg/mL
